Data published in US4291033A, “Oxoimidazoquinoxalines” (Roussel Uclaf, priority 1979, dated 1981).

Tested on: cutaneous anaphylaxis
Experiment: Passive cutaneous anaphylaxis (PCA) in rats
Format: in vivo, male rats
Conditions: Rattus norvegicus
Excerpt: Passive cutaneous anaphylaxis (PCA) in rats
Cutaneous anaphylaxis was induced in groups of 7 male rats weighing 180 to 220 grams by intradermal (ID) sensitization with antiserum followed, three days later, by systemic challenge with antigen. Evans blue dye injected with the antigen is used as a marker to assess the severity of the local response. Anti-allergic drugs inhibit this reaction and this method has been described by OVARY (1962) in "Passive Cutaneous Anaphylaxis in Allergology" 258-367 Ed. Brown; Pergamon Press.
Preparation of Antigen (or Sensitization)
(Alum-precipitated ovalbumen)
1. Wash 120 grams of Al(OH)3 gel in 140 ml of saline (use of a macerator facilitates mixing).
2. Centrifuge at 3,000 r.p.m. for about 10 minutes.
3. Resuspend the precipitate with 300 ml of albumen egg powder (1.3 mg/ml) in saline and allow to stand for 30 minutes.
4. Centrifuge at 3,000 r.p.m. for 10 minutes.
5. Weigh the wet precipitate and to each gram weight add 1 ml of saline. Store in frigerator.
(Quantity sufficient for 60 rats for a 3 day sensitization program).
Preparation of Antiserum (i.e. anti-ovalbumen)
1. 1 ml of the alum-precipitated ovalbumen was injected subcutaneously into 180-200 gram rats on days 0,2 and 4.
2. The rats were bled on day 14 either by cardiac puncture or via the dorsal abdominal aorta.
3. Equal quantities of serum from each animal were pooled and thoroughly mixed.
4. 2 ml of aliquots were stored at -20° C. in plastic tubes.
The antiserum for sensitization was diluted so that an ID injection of 0.1 ml into control animals gave an average score of a single spot of between 2.0-3.5 using a 5 point scoring system (0,1,2,3,4)
(A) SENSITIZATION: Rats are anaesthetized with Nembutal (40-60 mg/kg i.p.) and then sensitized by four ID injections (0.1 ml each) on their shaved backs. The animals were then left for a period of three days to develop sensitization.
(B) […]: The sensitized rats were anaesthetised and challenged orally or intravenously via the superficial penile vein with 1 ml of an antigen/Evans blue mixture (1 mg albumen egg powder in 0.5 ml saline plus 0.5 ml of 1% Evans blue). The injections were speeded up by using an automatic 1 ml self filling glass syringe. The "challenged" rats were killed after 30 minutes, (usually pithed) and their skin on the dorsal surface was removed. The degree and area of blueing, proportional to the anaphylactic reaction, was assessed on a five point scoring system.
1. Total scores for sites 1,2,3 and 4=X
2. Mean value of X for each group=X
3. X t=X for test group; X c=X for control group
4. % inhibition=(X c-X t)/X c×100/1

SMILES	ED50 (iv)	ED50 (po)
O=C(O)c1cn2c(n1)c(=O)[nH]c1ccccc12 [Example 2, 4,5-dihydro-4-oxoimidazo-[1,2-a]-quinoxaline-2-carboxylic acid]	0.16 mg/kg	2 mg/kg
Cn1c(=O)c2nc(C(=O)O)cn2c2ccccc21 [Example 4, 4,5-dihydro-5-methyl-4-oxoimidazo-[1,2-a]-quinoxaline-2-carboxylic acid]	0.031 mg/kg	1.28 mg/kg
CCOC(=O)c1cn2c(n1)c(=O)n(CC)c1ccccc12 [Example 5, Ethyl 4,5-dihydro-5-ethyl-4-oxoimidazo-[1,2-a]-quinoxaline-2-carboxylate]		0.16 mg/kg
CCn1c(=O)c2nc(C(=O)O)cn2c2ccccc21 [Example 6, 4,5-dihydro-5-ethyl-4-oxoimidazo-[1,2-a]-quinoxaline-2-carboxylic acid]	0.01 mg/kg	0.45 mg/kg
CCCn1c(=O)c2nc(C(=O)O)cn2c2ccccc21 [Example 8, 4,5-dihydro-5-propyl-4-oxoimidazo-[1,2-a]-quinoxaline-2-carboxylic acid]	0.01 mg/kg	0.24 mg/kg
CCCCn1c(=O)c2nc(C(=O)O)cn2c2ccccc21 [Example 10, 4,5-dihydro-5-butyl-4-oxoimidazo-[1,2-a]-quinoxaline-2-carboxylic acid]	0.023 mg/kg	0.59 mg/kg
